# Results reported in patent US10300042B2, “Apremilast for the treatment of a liver disease or a liver function abnormality” (Celgene Corporation, priority 2014, dated 2019).
# pIC50: −log10 of the molar value.
# How the values were obtained:
# [1] = test system: Alanine Aminotransferase; assay: ALT levels in RA-002 (rheumatoid arthritis); assay type: in vivo, human; details: Week 16
# Experimental: The improvement in mild baseline liver function test abnormalities has been observed with apremilast daily use without any prescribed changes in physical activity, social or dietary habits. During the course of the study, there was observed a higher proportion of subjects in the 30 mg BID apremilast treatment group with normal LFTs at subsequent placebo-controlled study visits at week 16. See Tables 17 to 24 from RA-002 studies.
# [2] = test system: TNF-α; assay: Inhibition of TNF-α production in PBMCs; assay type: cell-based; details: PBMC
# Source text: The test methods were as described in WO 03/080049; Muller et al., J. Med. Chem., 1996, 39:3238; and Muller et al., Bioorg. Med. Chem. Lett., 1999, 9:1625-30.
# [3] = test system: patients with moderate to severe plaque psoriasis; assay: Pruritus in ESTEEM 2; assay type: in vivo, human; details: Week 16, 30 mg BID
# Experimental: Patients were randomized with Apremilast in an amount of 30 mg twice per day or placebo for the first 16 weeks, and from Weeks 16 to 32, all patients received Apremilast in an amount of 30 mg twice per day.
# [4] = test system: Aspartate Aminotransferase; assay: AST levels in PSA-005 (psoriatic arthritis); assay type: in vivo, human; details: for AST High to Normal, percent of patients / AST Net Benefit / AST Normal to High, percent of patients: end of treatment (week 24)
# Source text: Apremilast was studied in a Phase 3 trial in patients with active psoriatic arthritis who have not been previously treated with disease-modifying antirheumatic drugs. […] The improvement in mild baseline liver function test abnormalities has been observed with apremilast daily use without any prescribed changes in physical activity, social or dietary habits. […] See Tables 25 to 34 from PSA-005 studies.
# [5] = Baseline High, Week 24, 20 mg BID
# [6] = Baseline High, Week 24, 30 mg BID
# [7] = Baseline Normal, Week 24, 20 mg BID
# [8] = Baseline Normal, Week 24, 30 mg BID
# [9] = Baseline Total, Week 24, 20 mg BID
# [10] = Baseline Total, Week 24, 30 mg BID
structure (smiles),measurement,setting,value
"CCOc1cc([C@@H](CS(C)(=O)=O)N2C(=O)c3cccc(NC(C)=O)c3C2=O)ccc1OC [Apremilast, (+)-2-[1-(3-ethoxy-4-methoxyphenyl)-2-methylsulfonylethyl]-4-acetylaminoisoindoline-1,3-dione]","ALT Normal, % of patients","[1]; Baseline High, 20 mg BID",25.0%
same,"ALT High, % of patients","[1]; Baseline High, 30 mg BID",33.3%
same,"ALT Low, % of patients","[1]; Baseline High, 30 mg BID",0.0%
same,"ALT Normal, % of patients","[1]; Baseline High, 30 mg BID",66.7%
same,"ALT High, % of patients","[1]; Baseline Normal, 20 mg BID",4.5%
same,"ALT Low, % of patients","[1]; Baseline Normal, 20 mg BID",0.0%
same,"ALT Normal, % of patients","[1]; Baseline Normal, 20 mg BID",95.5%
same,"ALT High, % of patients","[1]; Baseline Normal, 30 mg BID",3.1%
same,"ALT Low, % of patients","[1]; Baseline Normal, 30 mg BID",0.0%
same,"ALT Normal, % of patients","[1]; Baseline Normal, 30 mg BID",96.9%
same,"ALT High, % of patients","[1]; Baseline Total, 20 mg BID",8.6%
same,"ALT Low, % of patients","[1]; Baseline Total, 20 mg BID",0.0%
same,"ALT Normal, % of patients","[1]; Baseline Total, 20 mg BID",91.4%
same,"ALT High, % of patients","[1]; Baseline Total, 30 mg BID",4.5%
same,"ALT Low, % of patients","[1]; Baseline Total, 30 mg BID",0.0%
same,"ALT Normal, % of patients","[1]; Baseline Total, 30 mg BID",95.5%
same,pIC50,[2],7.11
same,Change in Pruritus Visual Analog Scale (mm ± SD),[3],−33.5 (±35.46) mm
same,"AST High to Normal, percent of patients",[4]; 20 BID,60.0%
same,AST Net Benefit,[4]; 20 BID,37.5%
same,"AST Normal to High, percent of patients",[4]; 20 BID,2.0%
same,"AST High to Normal, percent of patients",[4]; 30 BID,75.0%
same,AST Net Benefit,[4]; 30 BID,60.0%
same,"AST Normal to High, percent of patients",[4]; 30 BID,2.1%
same,"AST High to Normal, Difference between Placebo and APR 30 BID","[4]; 30 BID, week 24",25%
same,"AST Net Benefit, Difference between Placebo and APR 30 BID","[4]; 30 BID, week 24",35.0%
same,"AST Normal to High, Difference between Placebo and APR 30 BID","[4]; 30 BID, week 24",−1.8%
same,"AST High to Normal, Difference between Placebo and APR 30 BID","[4]; 30 BID, week 24, listed as APR",25.0%
same,"AST High, % of patients",[4]; [5],40.0%
same,"AST Low, % of patients",[4]; [5],0.0%
same,"AST Normal, % of patients",[4]; [5],60.0%
same,"AST High, % of patients",[4]; [6],25.0%
same,"AST Low, % of patients",[4]; [6],0.0%
same,"AST Normal, % of patients",[4]; [6],75.0%
same,"AST High, % of patients",[4]; [7],2.0%
same,"AST Low, % of patients",[4]; [7],0.0%
same,"AST Normal, % of patients",[4]; [7],98.0%
same,"AST High, % of patients",[4]; [8],2.1%
same,"AST Low, % of patients",[4]; [8],0.0%
same,"AST Normal, % of patients",[4]; [8],97.9%
same,"AST High, % of patients",[4]; [9],3.2%
same,"AST Low, % of patients",[4]; [9],0.0%
same,"AST Normal, % of patients",[4]; [9],96.8%
same,"AST High, % of patients",[4]; [10],3.9%
same,"AST Low, % of patients",[4]; [10],0.0%
same,"AST Normal, % of patients",[4]; [10],96.1%
same,Baseline High AST: High %,"[4]; Week 4, 20 mg BID",71.4%
same,Baseline High AST: Normal %,"[4]; Week 4, 20 mg BID",28.6%
same,Baseline High AST: High %,"[4]; Week 4, 30 mg BID",50.0%
same,Baseline High AST: Normal %,"[4]; Week 4, 30 mg BID",50.0%
same,Baseline High AST: High %,"[4]; Week 16, 20 mg BID",20.0%
same,Baseline High AST: Normal %,"[4]; Week 16, 20 mg BID",80.0%
same,Baseline High AST: High %,"[4]; Week 16, 30 mg BID",41.7%
same,Baseline High AST: Normal %,"[4]; Week 16, 30 mg BID",58.3%
same,Baseline High AST: High %,"[4]; Week 24, 20 mg BID",40.0%
same,Baseline High AST: Normal %,"[4]; Week 24, 20 mg BID",60.0%
same,Baseline High AST: High %,"[4]; Week 24, 30 mg BID",25.0%
same,Baseline High AST: Normal %,"[4]; Week 24, 30 mg BID",75.0%
